Data set [1] relates to rabbit kidney brush border membranes (RBBM). Description: physchem. The format is biochemical. The note with it: for Effect of inhibitor on atrial peptide bioactivity during incubation with renal brush border membranes: nanomolar (low) concentrations of inhibitor. The method, then: (§1) The kelatorphan was prepared according to the method described for compound 13 by Fournie-Saluski et al., J. Med. Chem. 28, 1158-1169 (1985). The following procedure was performed at 4° C. Rabbit kidneys were obtained fresh and were perfused with buffer A (containing 5 mM Tris, pH 7.5, 0.25 M sucrose, 3 mM MgCl2 and 1 mM EDTA) to remove the blood. (EDTA=ethylenediaminetetraacetic acid.) The kidneys were minced, homogenized in 5 volumes of ice-cold buffer A with a Brinkmann Polytron homogenizer and filtered through two layers of cheesecloth. The filtrate was centrifuged at 5,000×g for 20 min, the pellet was discarded and the supernatant was centrifuged at 15,000×g for 20 min. The supernatant was retained and then centrifuged at 100,000×g for 90 min. The pellet was resuspended in 50 mM Tris, pH 7.5, and the suspension was centrifuged at 100,000×g for 90 min. The washed pellet was resuspended in 50 mM Tris, pH 7.5, to give a final protein concentration of 4 mg/ml using the protein assay of Bradford, Anal. Biochem. 72, 248-254 (1976). The membrane preparation was assayed for aminopeptidase and alkaline phosphatase activities which are the marker enzymes for the kidney brush border. See Inui et al., Biochim. Biophys. Acta 647, 150-154 (1981). The final membrane preparation was enriched 8-fold in alkaline phosphatase activity, and 11-fold in aminopeptidase activity, compared to the homogenate. Renal brush border membranes (10-20 μg) were preincubated for 15 min at 25° C. in a solution containing the inhibitor and 50 mM Tris, pH 7.5. […] Incubations were for 60 min at 25° C. and were terminated by removing the membranes by filtration using Gelman GA-6 filters. The filtrates were immediately frozen on dry ice and were stable for 1 week when stored at -80° C. Samples containing the peptide degradation products were resolved by C18 reversed phase high pressure liquid chromatography (HPLC). The frozen samples were thawed immediately before injection onto a Vydac C18 column (4.6 mm I.D.×25 cm; 5 micron/300 Å) equilibrated with water containing 0.05% trifluoracetic acid (TFA). Peptide fragments and starting material were separated on a linear gradient of 0-35% acetonitrile also containing 0.05% TFA. Both the gradient and the flow rate (1 ml/min) were maintained by a Waters HPLC system consisting of two Model 510 pumps connected to an Automated Gradient Controller. Column effluent was monitored at 220 nm by a Waters Model 481 spectrophotometer, and the amount of atrial peptide material and peptide fragments were measured via a Hewlett-Packard Model […] integrator. […] Therefore, in those cases where the N-terminal serine was removed, the total amount of biologically active material remaining at the end of the incubation was taken as the % starting material remaining plus % des […] -AP-I or des […] -AP-III (as appropriate), as calculated from the peak areas of the individual peptides on HPLC.

The nature of another data set: physchem. In kind it is biochemical, rabbit. The note with it: pH 7.5, Peak area as % Initial AP: AP. How it is done: as §1
A short description of data set [2]: Plasma AP-III levels (radioimmunoassay) in rats, first test: constant AP-III infusion, varied thiorphan dose. The format is in vivo, rat. The note with it: male, Sprague-Dawley, rat, in vivo, iv. The method, then: (§2) Plasma levels of atriopeptin III (AP-III) were tested in rats in which the AP-III was infused intravenously both with and without contemporaneous administration of thiorphan.
(§3) Male Sprague-Dawley rats, 240-310 g, were used for all tests. The rats were housed in the test facilities for at least 6 days before they were used.
(§4) Cannulas were made of PE-10 (polyethylene) tubing inserted and glued into a piece of PE-50 tubing. Rats were anesthetized with pentobarbital (50 mg/kg i.p.) and had cannulas inserted into the left femoral vein and artery. Both were inserted four cm into the vessels and tied securely. They were then tunnelled under the skin and brought out between the rat's shoulder blades and then cut so that only 1-2 cm was externalized. Cannulas were glued in place using Superglue and filled with saline containing 100 units heparin/ml. Rats were allowed to wake up and then housed individually with food and water ad libitum.
(§5) Two days after surgery, the rats were weighed and put into restraining cages that allowed limited movement. […] Blood was collected from the femoral artery and replaced with saline containing 10 units heparin/ml. In most tests, 0.3 ml blood was taken, except that when basal AP-III levels were measured 0.4 ml blood was withdrawn. Blood was immediately centrifuged in a microcentrifuge for one minute and plasma was frozen in plastic tubes placed on dry ice. Samples were kept in a -80° C. freezer until they were analyzed.
(§6) Thiorphan was dissolved in a minimal amount of 0.1 N NaOH to produce the sodium salt. The solution was immediately neutralized using 0.5 N HCl and diluted to a final concentration with 0.9% saline.
After taking the second sample, thiorphan was given as a bolus injection into the femoral artery and the line was flushed with 0.2 ml saline. The doses of thiorphan were 1,3,10 and 30 mg/kg; one set of rats received only a saline bolus as a control. Blood was taken 10,20,30 and 60 minutes after the injection of thiorphan. AP-III was infused during the entire experiment for a total of 90 minutes.
(§7) Plasma AP-III levels were analyzed by radioimmunoassay using a second antibody to separate free and bound AP-III. The label was ^125 I-AP-III that was purified by HPLC after iodination. Conditions were set so that 35-40% of the total counts were precipitated. The incubation medium contained sodium phosphate, pH 7.4, 0.25% bovine serum albumin (BSA), 0.5% sodium azide and 3% PEG-8000 (polyethylene glycol). The primary antibody was from a guinea pig immunized against AP-III. The incubations were done overnight at 6° C. The next day, 2 ml of 0.125% BSA was added to each tube and then they were centrifuged for 45 min at 3000 rpm. They were decanted and the radioactivity was counted in a Micromedic gamma counter. The standard curve contained 10 to 600 pg AP-III/tube. Only the linear portion of the curve was used for quantification. Plasma samples were diluted so that the AP-III concentrations were in the range of the standard curve.

Data set [3] can be described thus: Plasma AP-III levels (radioimmunoassay) in rats, second test: varied AP-III infusion rate, constant thiorphan dose. The format is in vivo, rat. The note with it: male, Sprague-Dawley, rat, in vivo, iv. The method, then: as §2, §3, §4, §5, §6
In the second test, the level of thiorphan was kept constant at 3 mg/kg and the rate of AP-III infusion was varied. AP-III was infused into the femoral vein for a total of 60 minutes at a rate of 150,450 and 900 ng/kg/min; another group of rats received only an infusion of dextrose/saline to determine if thiorphan affected the basal levels of AP-III. Blood was taken at 15 and 30 minutes after the start of the AP-III infusion to check for a steady state AP-III plasma concentration. After the 30 min sample, thiorphan (3 mg/kg) was injected arterially and additional blood samples were taken 15 and 30 min later (45 and 60 minutes after the start of the AP-III infusion).
as §7

The mark [4] stands for this setting: (c) 40 μM AP-III, 20 μg RBBM, 100 nM inhibitor, 60 min, 25° C.
Setting [5] is: rabbit, kidney or brush border membranes.

The amount remaining is what is left of the initial amount, in per cent. A high value points to greater stability.

Structures are written as SMILES. Where a SMILES comes first, the peptide text is derived from it. Bridges are numbered along the chain shown (N, C = ends).

Regarding `C[C@H](NC(=O)[C@@H](CC(=O)NO)Cc1ccccc1)C(=O)O` [kelatorphan, [(R)-3-(N-hydroxy)carboxamido-2-benzylpropanoyl]-L-alanine], the “Effect of inhibitor on atrial peptide bioactivity during incubation with renal brush border membranes” value (“Effect of inhibitor” for short) in data set [1] was “substantially prolonged or enhanced”.

`C[C@H](NC(=O)[C@H](CC(=O)NO)Cc1ccccc1)C(=O)O` [(S,S) kelatorphan]: in data set [1] (setting [4]), the “Peak area as % Initial AP: AP” value is listed as 17.2%, the “Peak area as % Initial AP: AP + des Ser^1 -AP” value was found to be 49.3% and the “Peak area as % Initial AP: des Ser^1 -AP” value is 32.1%. In data set [1], the “Effect of inhibitor” value is recorded as “inhibit the loss of atrial peptide bioactivity”.

Consider `CC[C@H](C)[C@@H]1NC(=O)[C@H](CCCN=C(N)N)NC(=O)[C@H](CC(=O)O)NC(=O)[C@H]([C@@H](C)CC)NC(=O)[C@H](CCCN=C(N)N)NC(=O)CNC(=O)CNC(=O)[C@H](Cc2ccccc2)NC(=O)[C@@H](NC(=O)[C@H](CO)NC(=O)[C@@H](N)CO)CSSC[C@@H](C(=O)N[C@@H](CC(N)=O)C(=O)N[C@@H](CO)C(=O)N[C@@H](Cc2ccccc2)C(=O)N[C@@H](CCCN=C(N)N)C(=O)N[C@@H](Cc2ccc(O)cc2)C(=O)O)NC(=O)CNC(=O)[C@H](CC(C)C)NC(=O)CNC(=O)[C@H](CO)NC(=O)[C@H](CCC(N)=O)NC(=O)[C@H](C)NC(=O)CNC1=O` [AP-III] (H-SSCFGGRIDRIGAQSGLGCNSFRY-OH; disulfide 3-19), for which the fraction remaining at 1 h, 40 μM in “physchem” (buffer or solvent) came out at 100%. Moreover, in the data set “physchem” (setting [5]), the fraction remaining at 1 h, 40 μM came out at 3.3%. In addition, the “Peak area as % Initial AP: AP” value in data set [1] (rabbit, kidney or brush border membranes, 1 h, 40 μM, pH 7.5) came out at 2.1%. Further, in data set [2] (833 ng/kg/min), the “Plasma AP-III concentration, stable level during infusion” value fell in the range of 9 to 11 ng/mL; the “Plasma AP-III levels, constant level in control rats” value lay within 11 to 12 ng/mL; the level at 20 min stood at 9.6 ± 1.6 ng/mL; the level at 0.5 h stood at 10.8 ± 1.1 ng/mL. In data set [2] (833 ng/kg/min), this compound returned a level at 40 min of 11.2 ± 1.3 ng/mL, a level at 50 min of 11.3 ± 1.1 ng/mL, a level at 1 h of 11.7 ± 0.7 ng/mL and a level at 1.5 h of 10.6 ± 1.4 ng/mL. In data set [2] (1 mg/kg), this compound yielded a level at 20 min of 9.2 ± 2.4 ng/mL and a level at 0.5 h of 9.7 ± 1 ng/mL. In data set [2] (3 mg/kg), this compound had a level at 20 min of 10.1 ± 1.6 ng/mL and a level at 0.5 h of 11 ± 1.1 ng/mL. Besides, in data set [2] (10 mg/kg), the level at 20 min stood at 9.7 ± 2.4 ng/mL and the level at 0.5 h came out at 10.6 ± 2.9 ng/mL. In data set [2] (30 mg/kg), the level at 20 min worked out at 9.2 ± 1.1 ng/mL and the level at 0.5 h was 8.8 ± 1 ng/mL. In addition, in data set [3] (150 ng/kg/min), the level at 0.25 h came to 0.9 ± 0.2 ng/mL and the level at 0.5 h was determined as 1 ± 0.6 ng/mL. Besides, in data set [3] (450 ng/kg/min), the level at 0.25 h turned out to be 4.2 ± 1 ng/mL and the level at 0.5 h came out at 4.5 ± 1.2 ng/mL. Further, in data set [3] (900 ng/kg/min), the level at 0.25 h was determined as 11.2 ± 3.5 ng/mL and the level at 0.5 h was 13.6 ± 1.8 ng/mL.

Regarding `CC[C@H](C)[C@@H]1NC(=O)[C@H](CCCN=C(N)N)NC(=O)[C@H](CC(=O)O)NC(=O)[C@H]([C@@H](C)CC)NC(=O)[C@H](CCCN=C(N)N)NC(=O)CNC(=O)CNC(=O)[C@H](Cc2ccccc2)NC(=O)[C@@H](NC(=O)[C@H](CO)NC(=O)[C@@H](N)CO)CSSC[C@@H](C(=O)N[C@@H](CC(N)=O)C(=O)N[C@@H](CO)C(=O)O)NC(=O)CNC(=O)[C@H](CC(C)C)NC(=O)CNC(=O)[C@H](CO)NC(=O)[C@H](CCC(N)=O)NC(=O)[C@H](C)NC(=O)CNC1=O` [AP-I] (H-SSCFGGRIDRIGAQSGLGCNS-OH; disulfide 3-19), in the data set “physchem” (buffer or solvent), the fraction remaining at 1 h, 40 μM is 100%. For the same compound, the “Degradation of atrial peptide by proteolytic activity of renal brush border membranes” value in data set [1] is “degraded”.

Regarding `C[C@H](NC(=O)[C@@H](CC(=O)NO)Cc1ccccc1)C(=O)O` [(R,S) kelatorphan], in data set [1] (setting [4]), the “Peak area as % Initial AP: AP” value turned out to be 16.5%, the “Peak area as % Initial AP: AP + des Ser^1 -AP” value is given as 31.4% and the “Peak area as % Initial AP: des Ser^1 -AP” value is listed as 14.9%. For the same compound, in data set [1], the “Effect of inhibitor” value is “inhibit the loss of atrial peptide bioactivity”.

`CC[C@H](C)[C@@H]1NC(=O)[C@H](CCCNC(=N)N)NC(=O)[C@H](CC(=O)O)NC(=O)[C@H](CCSC)NC(=O)[C@H](CCCNC(=N)N)NC(=O)CNC(=O)CNC(=O)[C@H](Cc2ccccc2)NC(=O)[C@@H](NC(=O)[C@H](CO)NC(=O)[C@H](CO)NC(=O)[C@H](CCCNC(=N)N)NC(=O)[C@H](CCCNC(=N)N)NC(=O)[C@H](CC(C)C)NC(=O)[C@@H](N)CO)CSSC[C@@H](C(=O)N[C@@H](CC(N)=O)C(=O)N[C@@H](CO)C(=O)N[C@@H](Cc2ccccc2)C(=O)N[C@@H](CCCNC(=N)N)C(=O)N[C@@H](Cc2ccc(O)cc2)C(=O)O)NC(=O)CNC(=O)[C@H](CC(C)C)NC(=O)CNC(=O)[C@H](CO)NC(=O)[C@H](CCC(N)=O)NC(=O)[C@H](C)NC(=O)CNC1=O` [SLRR(Met^8)AP-III]: the amount remaining at 1 h, 40 μM in the data set “physchem” (buffer or solvent) is 100%; in “physchem” (setting [5]), 0%. Also, the “Degradation of atrial peptide by proteolytic activity of renal brush border membranes” value in data set [1] is reported as “degraded”.
